Assay results reported in patent US20100316529A1, “Anti-Microbial Systems and Methods” (priority 2001, published 2010).
Where “and” joins values, the source holds several entries; their conditions need not be identical. Equal entries are not always repeated.

Experiments:
Type in all cases: cell-based
[1] = system: Acinetobacter baumanii; assay: EDTA salt dilution test, MIC/MBC; conditions: two entries, Exhibit A2
[2] = system: Ent. cloacae; assay: EDTA salt dilution test, MIC/MBC; conditions: three entries, Exhibit A1
[3] = system: C. lucitaniae; assay: EDTA agar dilution method, yeasts, MIC/MBC; conditions: Exhibit C
Excerpt: (§1) Protocol 3: Agar dilutions.
Do this until all the media is used up.

[4] = system: Kleb. ornitholytica; assay: EDTA salt dilution test, MIC/MBC
[5] = system: Kleb. oxytoca; assay: EDTA salt dilution test, MIC/MBC
[6] = system: Coryneform strait/amy; assay: EDTA salt dilution test, MIC/MBC
[7] = system: Proteus vulgaris; assay: EDTA salt dilution test, MIC/MBC
[8] = system: C. guilliermondii; assay: EDTA agar dilution method, yeasts, MIC/MBC; conditions: Exhibit C
Procedure: (§2) The bactericidal effects were measured as the Minimum Bactericidal Concentration (MBC), while the inhibitory effects were measured as the Minimum Inhibitory Concentration (MIC). In each case, the concentration was measured as milligrams of the disinfectant salt per milliliter of water (mg/ml).
as §1
(§3) Prepare nutrient agar plates with increasing concentrations of EDTA, 0, 0.5, 1, 1.5, 2, 4, 6, 8, 10, 15, 20, 25, 30 mg/mL, using the following method. • Pour 300 mL distilled water into a sterile glass bottle. • Add the appropriate amount of EDTA. This is the concentration desired ×300, in grams. • Once the EDTA has fully dissolved, add 8.4 g of Nutrient agar powder (Oxoid). Mix thoroughly. • Do this for each concentration of EDTA required. […] Do this until all the media is used up. Label the plates with the concentration of EDTA they contain. • These plates can then be stored, until they are needed, in a 4° C. fridge. • Use an automatic plate inoculator to inoculate each plate with 21 organisms.

[9] = system: C. tropicalis; assay: EDTA agar dilution method, yeasts, MIC/MBC; conditions: Exhibit C
Procedure: as §2, §1, §3

[10] = system: C. parapsilosis; assay: EDTA agar dilution method, yeasts, MIC/MBC; conditions: Exhibit C
Procedure: as §2, §1, §3

[11] = system: C. albicans; assay: EDTA agar dilution method, yeasts, MIC/MBC; conditions: three entries, Exhibit C
Procedure: as §2, §1, §3

[12] = system: C. glabrata; assay: EDTA agar dilution method, yeasts, MIC/MBC; conditions: two entries, Exhibit C
Procedure: as §2, §1, §3

[13] = system: variety of microbes; assay: Efficacy of disinfectant salts of EDTA against a number of microbes; conditions: general statement
Procedure: The Applicant has tested the efficacy of a number of disinfectant salts of EDTA against a number of microbes.
Protocol one: Broth dilutions:
Inoculate a 25 ml nutrient broth (Oxoid No2) in a sterile universal container with one of the following organisms; Pseudomonas aeruginosa, Proteus Mirabilis, E. coli, Klebsiella pneumoniae, Staph aureus, Coagulase negative staphylococci, Enterococcus faecalis or MRSA.
Incubate the broth at 37° C. overnight.
Next day make up a series of nutrient broths containing a dilution of the appropriate EDTA as in the following list; 0 mg/mL, 0.25 mg/mL, 0.5 mg/mL, 1.0 mg/mL, 1.5 mg/mL, 2.0 mg/mL, 4.0 mg/mL, 6.0 mg/mL, 8.0 mg/mL, 10 mg/mL, 15 mg/mL, 20 mg/mL, 25 mg/mL, 30 mg/ml, 40 mg/mL, 50 mg/mL, 60 mg/mL, 70 mg/mL, 80 mg/mL, 90 mg/mL, 100 mg/mL.
To make these concentrations put the EDTA needed for 10 mLs in only 9 mLs of broth in sterile universal containers, as this will be diluted further when the organisms are added.
Dilute the overnight broth cultures to 10^7 organisms/mL using more sterile nutrient broth.
Add 1 mL of this diluent to each of the EDTA series broths. This gives a final concentration of 10^6 organism/mL in the EDTA broths.
Incubate for 18 hours at 37° C.
Next day visually read the MIC's by observing the turbidity of the broths. […]
Next day read the MBC's by performing colony counts.

[14] = system: Cornyeform amycolatum; assay: EDTA salt dilution test, MIC/MBC
[15] = system: Ent. faeculm; assay: EDTA salt dilution test, MIC/MBC
[16] = system: Steno. maltophilia; assay: EDTA salt dilution test, MIC/MBC
[17] = system: S. simulans; assay: EDTA salt dilution test, MIC/MBC
[18] = system: Pseudomonas aeruginosa; assay: EDTA salt dilution test, MIC/MBC; conditions: two entries
[19] = system: Ent. faecalis; assay: EDTA salt dilution test, MIC/MBC
[20] = system: S. capitis; assay: EDTA salt dilution test, MIC/MBC; conditions: two entries
[21] = system: Proteus mirabilis; assay: EDTA salt dilution test, MIC/MBC; conditions: two entries
[22] = system: S. aureus; assay: EDTA salt dilution test, MIC/MBC; conditions: five entries, Exhibit A2
[23] = system: S. lentus; assay: EDTA salt dilution test, MIC/MBC
[24] = system: MRSA; assay: EDTA salt dilution test, MIC/MBC; conditions: five entries, Exhibit A2
[25] = system: Kleb. pnemoniae; assay: EDTA salt dilution test, MIC/MBC; conditions: two entries, Exhibit A1
[26] = system: VRE; assay: EDTA salt dilution test, MIC/MBC; conditions: two entries
[27] = system: S. xylosus; assay: EDTA salt dilution test, MIC/MBC
[28] = system: S. epidermidis; assay: EDTA salt dilution test, MIC/MBC; conditions: two entries
[29] = system: Pseudomonas sp.; assay: EDTA salt dilution test, MIC/MBC
[30] = system: E. coli; assay: EDTA salt dilution test, MIC/MBC; conditions: three entries, Exhibit A1

N.N.O=C(O)CN(CCN(CC(=O)O)CC(=O)O)CC(=O)O [Diammonium EDTA]
MIC, minimum concentration required to inhibit growth [1]: <500 µg/mL | MBC, minimum concentration required to kill an entire population [2]: >10000 µg/mL | MIC's, Minimum Inhibitory Concentration [3]: 500 µg/mL | MBC, minimum concentration required to kill an entire population ([4]; Exhibit A1): >10000 µg/mL | MIC, minimum concentration required to inhibit growth ([4]; Exhibit A2): 1000 µg/mL | MBC, minimum concentration required to kill an entire population ([5]; Exhibit A1): >10000 µg/mL | MIC, minimum concentration required to inhibit growth ([5]; Exhibit A2): 1000 µg/mL | MBC, minimum concentration required to kill an entire population ([6]; Exhibit A1): 1000 µg/mL | MIC, minimum concentration required to inhibit growth ([6]; Exhibit A2): <500 µg/mL | MBC, minimum concentration required to kill an entire population ([7]; Exhibit A1): >10000 µg/mL | MIC, minimum concentration required to inhibit growth ([7]; Exhibit A2): <500 µg/mL | MIC's, Minimum Inhibitory Concentration [8]: 500 µg/mL | MIC's, Minimum Inhibitory Concentration [9]: 1000 µg/mL | MIC's, Minimum Inhibitory Concentration [10]: 500 µg/mL | MIC's, Minimum Inhibitory Concentration [11]: 500 µg/mL | MIC's, Minimum Inhibitory Concentration [12]: 500 µg/mL | anti-microbial (antifungal and antibacterial) properties compared with the disodium salt [13]: superior to disodium EDTA | MBC, minimum concentration required to kill an entire population ([14]; Exhibit A1): 1000 µg/mL | MIC, minimum concentration required to inhibit growth ([14]; Exhibit A2): <500 µg/mL | MIC, minimum concentration required to inhibit growth ([15]; Ent. faecuim, Exhibit A2): <500 µg/mL | MBC, minimum concentration required to kill an entire population ([15]; Ent. faeculm, Exhibit A1): 15000 µg/mL | MBC, minimum concentration required to kill an entire population ([16]; Exhibit A1): >10000 µg/mL | MIC, minimum concentration required to inhibit growth ([16]; Exhibit A2): 1000 µg/mL | MBC, minimum concentration required to kill an entire population ([17]; Exhibit A1): 10000 µg/mL | MIC, minimum concentration required to inhibit growth ([17]; Exhibit A2): <500 µg/mL | MBC, minimum concentration required to kill an entire population ([18]; Exhibit A1): >10000 µg/mL | MIC, minimum concentration required to inhibit growth ([18]; Exhibit A2): 1000 µg/mL | MBC, minimum concentration required to kill an entire population ([19]; Exhibit A1): 15000 µg/mL | MIC, minimum concentration required to inhibit growth ([19]; Exhibit A2): 1000 µg/mL | MBC, minimum concentration required to kill an entire population ([20]; Exhibit A1): 10000 µg/mL and 8000 µg/mL | MIC, minimum concentration required to inhibit growth ([20]; Exhibit A2): <500 µg/mL | MBC, minimum concentration required to kill an entire population ([21]; Exhibit A1): >10000 µg/mL | MIC, minimum concentration required to inhibit growth ([21]; Exhibit A2): <500 µg/mL | MIC, minimum concentration required to inhibit growth [22]: 1000 µg/mL | MBC, minimum concentration required to kill an entire population ([23]; Exhibit A1): 10000 µg/mL | MIC, minimum concentration required to inhibit growth ([23]; Exhibit A2): <500 µg/mL | MIC, minimum concentration required to inhibit growth [24]: 1000 µg/mL | MBC, minimum concentration required to kill an entire population [25]: >10000 µg/mL | MBC, minimum concentration required to kill an entire population ([26]; Exhibit A1): 15000 µg/mL and >15000 µg/mL | MIC, minimum concentration required to inhibit growth ([26]; Exhibit A2): <500 µg/mL and 1000 µg/mL | MBC, minimum concentration required to kill an entire population ([27]; Exhibit A1): 4000 µg/mL | MIC, minimum concentration required to inhibit growth ([27]; Exhibit A2): <500 µg/mL | MBC, minimum concentration required to kill an entire population ([28]; Exhibit A1): 4000 µg/mL and 8000 µg/mL | MIC, minimum concentration required to inhibit growth ([28]; Exhibit A2): <500 µg/mL | MBC, minimum concentration required to kill an entire population ([29]; Exhibit A1): >10000 µg/mL | MIC, minimum concentration required to inhibit growth ([29]; Exhibit A2): <500 µg/mL | MBC, minimum concentration required to kill an entire population [30]: >10000 µg/mL
